According to patent US11267832B2, “Mn(II)-based sensors to detect zinc in vivo with MRI” (The Board of Regents of the University of Texas System, priority 2018, dated 2022):

Key:
[1] = test system: Male C57B16 mice; experiment: Tissue ICP-AES biodistribution of Mn; type: in vivo
Experimental: Tissue ICP-AES: Biodistribution of 5 was measured in tissues 15 and 90 min after injection of (1) 0.07 mmol/kg 5 plus 2.2 mmol/kg D-glucose, (2) 0.07 mmol/kg 5 plus saline, and (3) 0.035 mmol/kg MnCl plus 2.2 mmol/kg D-glucose into male C57B16 mice. The tissue weights were recorded and digested in aqua regia for 24 hours, the digested tissue was heated to 120° C. until evaporated and re-suspended in 0.5 M HCl. For ICP-AES, Mn, Fe, and Zn concentrations were obtained by comparing to a known metal standard.

[2] = Relaxometry (T1 and T2 at 1.5 T); type: physicochemical; details: 37° C.
Experimental: Relaxometry: Varying concentrations of 5 (0-1 mM) were incubated with 2 mM ZnCl2, and 0.6 mM human serum albumin (HSA) at 37° C. T1 and T2 measurements were obtained at 1.5 T using a Bruker relaxometer. T1 was obtained by an inversion recovery sequence (IR, first pulse=10 ms, TR=10 s, TI=10-2500 ms), and T2 by a Carr-Prucell-Meiboom-Gill (CPMG, TE/TR=5/10000 ms, NE=700).

[3] = test system: Male C57B16 mice; experiment: In vivo T1-weighted MRI of glucose-stimulated zinc secretion
Experimental: In Vivo MRI: Male C57B16 mice were imaged at 4.7 T and 9.4 T using Varian/Agilent scanners. Mice were anesthetized with 2-5% isofluorane/oxygen mixture and their body temperature was maintained at 37° C. using heated airflow. Two ge3d T1-weighted scans were obtained as a baseline (TE/TR=1.69/3.35 ms, Average=4, θ=20°). Mice then received 0.07 mmol/kg 5 i.v. plus 2.2 mmol/kg D-Glucose i.p. and sequential 3d T1-weighted scans were obtained for 90 minutes until clearance of the agent was evident. Images were analyzed using ImageJ, organs of interest were identified, and ROIs were measured and normalized to muscle ROIs within the same slice and time point. The change in MR signal intensity is reported as a percentage compared to pre-injection scans.

[4] = Clearance route and integrity by LC-MS of urine and bile; type: in vivo
[5] = 0.035 mmol/kg i.v. plus 2.2 mmol/kg D-glucose i.p.

longitudinal relaxivity r1 ([2]; "off" configuration (no Zn(II)/HSA)) [mM⁻¹ s⁻¹] | longitudinal relaxivity r1 ([2]; "on" configuration bound to Zn^2+ and HSA (2 mM ZnCl2, 0.6 mM HSA)) [mM⁻¹ s⁻¹] | integrity during hepatobiliary clearance ([4]; LC-MS of bile) | Compound | Mn accumulation in the heart [1, 5] | excretion route (tissue biodistribution of Mn) [1, 5] | MRI signal enhancement in organs ([3]; 0.07 mmol/kg i.v. plus D-glucose 2.2 mmol/kg i.p., 4 minutes post injection, 9.4 T) | MRI signal enhancement in organs ([3]; control, D-glucose not co-injected) | Mn accumulation in the heart ([1]; 0.07 mmol/kg i.v. plus 2.2 mmol/kg D-glucose i.p.) | Mn content in tissues (biodistribution) ([1]; 15 minutes post-injection, 0.07 mmol/kg i.v. plus 2.2 mmol/kg D-glucose i.p.) | Mn content in tissues (biodistribution) ([1]; 90 minutes post-injection, 0.07 mmol/kg i.v. plus 2.2 mmol/kg D-glucose i.p.) | integrity after renal filtration ([4]; LC-MS of urine)
– | – | – | [Cl][Mn][Cl] [MnCl2, reference compound] | Accumulation in the heart | excreted renally and more overwhelmingly via the hepatobiliary system | – | – | – | – | – | –
3.5 | 14.1 | degraded during hepatobiliary clearance | Mn—N-(6-methyl)-(2-(bis(pyridin-2-ylmethyl)amino)ethyl)-nicotinamido-N,N′ N′-trans-1,2-cyclohexylenediamine-triacetate [Compound 5] | – | – | Enhancement in the pancreas, prostate, kidneys, and liver | marginal enhancement in the prostate and pancreas | no accumulation in the heart | found primarily in the kidneys, liver, pancreas, and prostate | greatly diminished in kidney and liver tissues but accumulated in the spleen and in the prostate | excreted as an intact complex after renal filtration
